One block for each compound: values may come before it.
Assays:
[1] = tested on: Rat1; experiment: Inhibition of H-ras-transformed Rat1 cells; type: functional, cell-based; conditions: Rattus norvegicus
[2] = molecular target: T1, Protein farnesyltransferase (Homo sapiens, UniProt P49354+P49356); experiment: Inhibitory concentration against farnesyltransferase was determined; type: protein-complex assay
[3] = molecular target: T2, Geranylgeranyl transferase type I (Homo sapiens, UniProt P49354+P53609); experiment: Inhibition binding constant Geranylgeranyl transferase type I; type: protein-complex assay
[4] = molecular target: T1, Protein farnesyltransferase; experiment: Effective concentration required to inhibit HDJ2 farnesylation in PSN-1 cells; type: functional, cell-based
[5] = molecular target: T1, Protein farnesyltransferase; experiment: Inhibition binding constant against Farnesyltransferase; type: protein-complex assay
[6] = tested on: NIH3T3; experiment: Inhibition of growth of H-ras-transformed 3T3 fibroblasts
[7] = molecular target: T2, Geranylgeranyl transferase type I; experiment: Inhibition binding constant against Geranylgeranyl transferase type I; type: protein-complex assay

IC50 [1]: 630 nM
Compound: CC[C@@H](C)[C@@H](CN(CC(=O)N[C@@H](CCSC)C(=O)OC)Cc1cccc2ccccc12)NC(=O)Cc1cncn1Cc1ccc(C#N)cc1

IC50 [2]: 1.8 nM
Compound: CC[C@@H](C)[C@@H](CO[C@@H](Cc1ccccc1)C(=O)N[C@@H](CCS(C)(=O)=O)C(=O)O)NC[C@@H](N)S

IC50 [3]: 54 nM
Compound: COC(=O)[C@H](CC(C)C)NC(=O)c1ccc(NC[C@@H](N)CS)cc1-c1cccc2ccccc12

IC50 [2]: 24 nM
Compound: O=C(c1ccccc1OC(F)(F)F)N1CCN(Cc2cnc[nH]2)c2ccc(-c3ccncc3)cc2C1

Compound: N#Cc1ccc2cc1Oc1ccc3c(c1)[C@@H](CCC3)N1CC[C@@H](NCc3cncn3C2)C1=O
EC50 [4]: 0.18 nM | IC50 [2]: < 1 nM

Compound: N#Cc1ccc2cc1Oc1ccc3cccc(c3c1)N1CCN(CC1=O)Cc1cncn1C2
IC50 [2]: 0.2 nM

Ki [5]: < 1 nM | Ki [7]: 8 nM
Compound: CSCC[C@H](NC(=O)c1cc(NC[C@@H]2C[C@H](SC(=O)c3cccnc3)CN2)ccc1CCc1ccc(F)cc1)C(=O)OC(C)C
IC50 [6]: 49 nM

IC50 [2]: 27000 nM
Compound: CC(=O)N1CCC(=C2c3ccc(Cl)cc3CCc3cccnc32)CC1 [SCH-37370]
